# Assay results published in patent US8053212B1, “Non-standard nucleoside analogs with reduced epimerization” (priority 2004, dated 2011).
# Assays:
# [1] = Epimerization at neutral pH followed by 1H NMR in D2O; format: physicochemical; settings: room temperature, after one week
# Experimental: To measure the rate of epimerization of the nucleoside at neutral pH, a sample was dissolved in D2O and stored at room temperature. The ^1H NMR was measured after several time intervals. […] In particular, the NMR signal arising from H-6 of the heterocycle remained unchanged.
# [2] = not given; remark: listed apart in the source
change of 1H NMR spectrum (epimerization) [1],fraction protonated at physiological pH,"pseudo first order rate constant of initial epimerization, kpH2 ([2]; pH 2.0, 37° C., aqueous)","slope of replot of logk versus pH ([2]; pH 2.0 to 5.0, 37° C.)","pseudo first order rate constant of initial epimerization, kpH5 ([2]; pH 5.0, 37° C., aqueous)","epimerization at high pH ([2]; pH 11.0, 23° C., 14 days, HPLC)","""end"" value: fraction of starting material remaining at end of reaction ([2]; buffer, 336 h, pH 2)",SMILES
did not change,> 80%,≈ 10^−4 s^−1,−0.971,≈ 2×10^−7 s^−1,no epimerization was detected,,Nc1[nH]c(=O)c([C@H]2C[C@H](O)[C@@H](CO)O2)cc1[N+](=O)[O-]
,,,,,,0.09,"Nc1[nH]c(=O)c([C@H]2C[C@H](O)[C@@H](CO)O2)cc1[N+](=O)[O-] [nucleoside 4, 6-amino-5-nitro-3-(1′-beta-D-2′-deoxyribofuranosyl)-2(1H)-pyridone]"
